Holding throughout (format): cell-based
One assay has as its system MiaPaCa-2 (pancreas). Briefly: in vitro cytotoxicity assay (Cell-Titer-Glo), MiaPaCa-2. To be noted: Homo sapiens, MIA PaCa-2, 96 h; Table 9; 4 days; read-out: IC50 MiaPaCa-2. The method, then:
(§1) To evaluate cell killing of cancer cell lines, an in vitro cytotoxicity assay was performed. The tumor cell lines used were purchased from the American Type Culture Collection, and are identified as follows: Panc-1 (pancreas), MiaPaCa-2 (pancreas), MCF-7 (breast), HT-29 (colon), U2-OS (osteosarcoma), OVCAR-3 (ovary), HepG2 (hepatocellular carcinoma) and TT (medullary thyroid). The assay utilized the Cell-Titer-Glo Non-Radioactive Cell Proliferation Assay (Promega Corp., Madison, Wis.). First the cells were cultured in RPMI 1640 medium (Cat# 21870-076, Invitrogen Corporation) supplemented with 300 mg/L L-glutamine, 100 units/ml penicillin, 100 μg/ml streptomycin and 10% fetal bovine serum. All the cell lines were incubated in a humidified incubator at 37° C. with 5% CO2 atmosphere.
(§2) Cells were plated at a density of 2000 to 10000 cells per well, depending on their growth rate, in 0.09 mL medium on day 0 in 96-well Microlite TCT microtiter plates (7418, Thermo Labsystems, Franklin, Mass.). On day 1, 10 μL of serial dilutions of the individual compounds were added to the plates in replicates of 3. After incubation for 4 days at 37° C. in a humidified incubator, the cells were lysed in the Cell-Titer-Glo reagent, which also contains luciferase enzyme. The luciferase reaction utilizes ATP released from lysed cells to produce light, the intensity of which is linearly related to the amount of ATP. Thus, the amount of light produced is a reflection of the number of cells remaining in the well after drug treatment. This luminescence was measured using a Luminoskan luminometer (Thermo Electron Corp., Vantaa, Finland) Data were expressed as the percentage of survival of control cells calculated from the luminescence corrected for background. The surviving percent of cells was determined by dividing the mean luminescence values of the treated wells by the mean luminescence values of the control and multiplying by 100.
as §1, with “Briefly,” for “To evaluate cell killing of cancer cell lines, an in vitro cytotoxicity assay was performed. The”, “thyroid), PC-3 (prostate) and A549 (lung).” for “thyroid).”
as §1, with “carcinoma), PC-3 (prostate),” for “carcinoma)”, “A549 (lung).” for “TT (medullary thyroid).”
(§3) Cells were plated at a density of 2000 to 10000 cells per well, depending on their growth rate, in 0.09 mL medium on day 0 in 96-well Microlite TCT microtiter plates (#7418, Thermo Labsystems, Franklin, Mass.). On day 1, 10 μL of serial dilutions of the individual compounds were added to the plates in replicates of 3. After incubation for 4 days at 37° C. in a humidified incubator, the cells were lysed in the Cell-Titer-Glo reagent, which also contains luciferase enzyme. […]

A further assay concerns MCF-7 (breast). Briefly: in vitro cytotoxicity assay (Cell-Titer-Glo), MCF-7. The settings on record: Homo sapiens, MCF7, 96 h; Table 9; 4 days; read-out: IC50 MCF-7. The method, then: as §1, §2
as §1, with “Briefly,” for “To evaluate cell killing of cancer cell lines, an in vitro cytotoxicity assay was performed. The”, “thyroid), PC-3 (prostate) and A549 (lung).” for “thyroid).”
as §1, with “carcinoma), PC-3 (prostate),” for “carcinoma)”, “A549 (lung).” for “TT (medullary thyroid).”
as §3

The test system of another assay is OVCAR-3 (ovary). Briefly: in vitro cytotoxicity assay (Cell-Titer-Glo), OVCAR-3. To be noted: Homo sapiens, OVCAR-3, 96 h; Table 9; 4 days; read-out: IC50 OVCAR-3. The method, then: as §1, §2
as §1, with “Briefly,” for “To evaluate cell killing of cancer cell lines, an in vitro cytotoxicity assay was performed. The”, “thyroid), PC-3 (prostate) and A549 (lung).” for “thyroid).”
as §1, with “carcinoma), PC-3 (prostate),” for “carcinoma)”, “A549 (lung).” for “TT (medullary thyroid).”
as §3

In assay [1] the test system is HepG2 (hepatocellular carcinoma). Briefly: in vitro cytotoxicity assay (Cell-Titer-Glo), HepG2. To be noted: Homo sapiens, HepG2, 96 h; Table 9; 4 days; read-out: IC50 HepG2. As for the experimental part: as §1, §2
as §1, with “Briefly,” for “To evaluate cell killing of cancer cell lines, an in vitro cytotoxicity assay was performed. The”, “thyroid), PC-3 (prostate) and A549 (lung).” for “thyroid).”
as §1, with “carcinoma), PC-3 (prostate),” for “carcinoma)”, “A549 (lung).” for “TT (medullary thyroid).”
as §3

The next assay concerns PC-3 (prostate). Briefly: in vitro cytotoxicity assay (Cell-Titer-Glo), PC-3. To be noted: 96 h; Table 9; 4 days; read-out: IC50 PC-3. The method, then: as §1, with “Briefly,” for “To evaluate cell killing of cancer cell lines, an in vitro cytotoxicity assay was performed. The”, “thyroid), PC-3 (prostate) and A549 (lung).” for “thyroid).”
as §2
as §1, with “carcinoma), PC-3 (prostate),” for “carcinoma)”, “A549 (lung).” for “TT (medullary thyroid).”
as §2, with “(#7418,” for “(7418,”, “100. […]” for “100.”

A further assay deals with A549 (lung). Briefly: in vitro cytotoxicity assay (Cell-Titer-Glo), A549. The settings on record: Homo sapiens, A549, 96 h; Table 9; 4 days; read-out: IC50 A549. As for the experimental part:
as §1, with “Briefly,” for “To evaluate cell killing of cancer cell lines, an in vitro cytotoxicity assay was performed. The”, “thyroid), PC-3 (prostate) and A549 (lung).” for “thyroid).”
as §2
as §1, with “carcinoma), PC-3 (prostate),” for “carcinoma)”, “A549 (lung).” for “TT (medullary thyroid).”
as §2, with “(#7418,” for “(7418,”, “100. […]” for “100.”

Structures are written as SMILES.

`COc1ccc2c(c1)[nH]c1ncnc(N3CCN(C(=S)Nc4ccc(S(=O)(=O)Nc5ccc(F)cc5)cc4)CC3)c12` [Compound 2-5, 4-(7-methoxy-9H-pyrimido[4,5-b]indol-4-yl)-N-(4-(N-(4-fluorophenyl)sulfamoyl)phenyl)piperazine-1-carbothioamide]: the IC50 (in general, the concentration needed to halve the response being measured) stood at 6.89 µM in the assay on MiaPaCa-2 (pancreas); 8.11 µM in the assay on MCF-7 (breast); 6.79 µM with OVCAR-3 (ovary); 8 µM in assay [1]; 7.68 µM with PC-3 (prostate); 6.73 µM with A549 (lung).
Consider `Cc1ccc(NS(=O)(=O)c2ccc(NC(=S)N3CCN(c4ncnc5[nH]c6cc(Cl)c(N7CCOCC7)cc6c45)CC3)cc2)cc1` [Compound 2-9, 4-(7-chloro-6-morpholino-9H-pyrimido[4,5-b]indol-4-yl)-N-(4-(N-tolylsulfamoyl)phenyl)piperazine-1-carbothioamide], for which the IC50 with MiaPaCa-2 (pancreas) was 26.9 µM; in the assay with MCF-7 (breast), 8.21 µM; in the assay with OVCAR-3 (ovary) it was 7.61 µM; in assay [1] it was 25.6 µM; with PC-3 (prostate) it was 8.25 µM; with A549 (lung) it was 19.4 µM.

The record behind these values is patent US20080207632A1, “PROTEIN KINASE INHIBITORS” (SUPERGEN, INC., priority 2006, published 2008).
